The results in this text go back to patent US10842151B2, “Small molecule compound for enhancing plant stress resistance” (SHANGHAI INSTITUTES FOR BIOLOGICAL SCIENCES, CHINESE …, priority 2015, dated 2020).

A short description of data set [1]: Maximum tolerated dose, single oral gavage. In kind it is in vivo. Particulars: both sexes, rat, in vivo, 5000 mg/kg, SD rats. The method, then: (§1) The test substance used in the experiment was AMX compound 1127.
(§2) In the maximum tolerated dose of tested substance in single oral gavage experiment in SD rat, 8 SD rats were randomly divided into two groups, with […]. After a single oral gavage administration, rats were observed continuously for 14 days and dissected on the 15th day. The following indicators were evaluated: clinical observation, body weight and pathology examination (macroscopic morphology).

The test system of a further data set is SD rat. Nature of the data set: Maximum tolerated dose, single oral gavage. As to conditions: 5000 mg/kg, male and female rats. In kind it is in vivo. The method, then: as §1, §2
In another data set the test system is soybean Williams 82. Nature of the data set: Soybean leaf transpiration experiment (thermal imaging). Particulars: 50 μM sprayed, 0.2 μmol per plant; after three days; vs DMSO. It is filed as in vivo. The procedure:
After three weeks of continuous watering, 0.05% tween-20 and corresponding concentrations of DMSO (control)/compound (+)-ABA/0918/1127 were sprayed onto the plants in a single administration with an amount of 1.2 ml/pot. Images were taken daily using the FLIR A655sc thermal imaging camera at the same time before and after spraying. The Williams 82 ecotype was used in soybean leaf transpiration experiments for compounds 0604c, 0918 and 1127 and was long-day cultured at 26° C. After the plants grew and had 3 leaves in each of 3 groups, 0.05% tween-20 and 50 μM DMSO (control)/(+)-ABA/0604c/0918/1127 compounds were sprayed in a single administration with an amount of 4 ml/pot. Images were taken daily using the FLIR A655sc thermal imaging camera at the same time before and after spraying.
Leaf transpiration experiments of soybean and cotton for compound 0720B were carried out at 26° C. with long-day lighting. 16 days and 23 days after sowing, a solution containing 0.1% tween-20 and corresponding concentration of (+)-ABA, or 0720B compound or 0.1% Tween-20 and 0.05% DMSO (control) was sprayed in an amount of 4 ml/pot. Images were taken daily using the FLIR A655sc thermal imaging camera at the same time before and after spraying.

For data set [2], the system named is Yunnan Lily variety Siberia. The experiment in a line: Flower preservative experiment. In kind it is in vivo. Particulars: aqueous suspension 10 ppm (22.5 μM); after 20 days. The method, then:
The commercially available Yunnan Lily varieties “Siberia” biennial buds were used for test, wherein each branch had 5 buds and 10 leaves, and there was 1 branch per bottle. The branch having buds was inserted into a water suspension preparation containing 10 ppm (22.5 μM) of AMX compound 1127 or into tap water. The flower status was recorded before and after 20 days of treatment.

In a further data set the test system is Kyoho grapes. Nature of the data set: Grape coloring experiment (anthocyanin content). It is filed as in vivo. As to conditions: aqueous suspension; vs fresh water control. The procedure:
The grapes used in the experiment were commercially available variety of Kyoho. According to weather conditions, during the color conversion period of grapes, the fruit ears with the same size and consistent growth were selected and soaked with a water suspension preparation containing 2000 mg/L, 1000 mg/L, 500 mg/L and 100 mg/L of 6% AMX compound 1127 for 10 seconds. Soaking in water was regarded as a control. Each experiment was repeated 10 times, each ear was regarded as a duplicate. Samples were collected after harvesting. Samples were collected from the upper, middle and lower parts of each ear in two directions, i.e., glossy and backlit, with 6 grains collected per ear. The samples were preserved in the laboratory at −20° C. for use.
30 pieces of pericarp were evenly taken from up and low portion around the equator of grape fruit by using a hole puncher with a diameter of 10 mm. After they were mixed well and weighed, the anthocyanin in the pericarp was determined. […] The content of anthocyanins (calculated as cornflower-3-glucoside equivalent) was determined by pH differential method and each treatment was repeated three times. Content of anthocyanins (mg/g) X=ΔA×F×M/ε×m, wherein ΔA was absorbance; F was fold of dilution; M is the relative molecular mass 449.2 of cyanidin-3-glucoside, ε is a molar extinction coefficient 26,900 for cyanidin-3-glucoside; m is sample mass.

A further data set deals with T1, PYR1 + HAB1 (Arabidopsis thaliana, UniProt O49686).
T1 sequence (O49686 1-191): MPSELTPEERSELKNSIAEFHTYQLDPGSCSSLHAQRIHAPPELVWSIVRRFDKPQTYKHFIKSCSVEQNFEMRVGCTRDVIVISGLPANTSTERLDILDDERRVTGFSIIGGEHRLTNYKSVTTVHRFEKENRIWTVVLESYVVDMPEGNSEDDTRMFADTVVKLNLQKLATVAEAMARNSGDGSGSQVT
T1 sequence (Q9CAJ0 172-511 partner): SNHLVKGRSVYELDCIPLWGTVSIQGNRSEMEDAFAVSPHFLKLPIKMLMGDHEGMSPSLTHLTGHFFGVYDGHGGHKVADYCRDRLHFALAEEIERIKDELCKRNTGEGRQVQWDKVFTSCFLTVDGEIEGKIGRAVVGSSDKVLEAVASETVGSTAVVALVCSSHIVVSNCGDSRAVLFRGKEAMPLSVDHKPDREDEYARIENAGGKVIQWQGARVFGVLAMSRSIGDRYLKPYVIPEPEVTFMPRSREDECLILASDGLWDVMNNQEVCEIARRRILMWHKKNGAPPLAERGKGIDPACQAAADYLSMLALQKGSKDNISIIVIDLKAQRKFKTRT
Nature of the data set: AlphaScreen experiment, PYR1 + HAB1. In kind it is binding. As to conditions: column 2; number in brackets; read-out: Half maximum effect concentration EC50 (PYR1 + HAB1). The procedure:
After incubating for 1.5 hours at room temperature in the dark, it was placed into an Envision Plate Reader (available from Perkin Elmer) under the programmed AlphaScreen procedure for readings.
(In general: In Alpha technology, singlet oxygen from a donor bead excites a nearby acceptor bead.)

The subject of data set [3] is Salmonella typhimurium TA98 and TA100. The experiment in a line: Bacterial reverse mutation experiment. As to conditions: all doses; -S9. It is filed as cell-based. The method, then: as §1
Two strains of Salmonella typhimurium, TA98 and TA100, were used in the bacterial reverse mutation experiment. The experiment was carried out by using standard plate incorporation method under a condition of non-metabolic activation system (−S9). There were totally 7 doses of […] as well as a negative control and a positive control.

The MTD is the largest dose that counted as tolerated. Read a high MTD as better tolerability. Take `CCCN1C(=O)CCc2cc(NS(=O)(=O)Cc3c(F)c(F)c(C)c(F)c3F)ccc21` [Compound 1127]: the MTD at 14 days in data set [1] is above 5000 mg/kg. Further, the “clinical observation, body weight and macroscopic morphological observation of tissues/organs” value in the data set on SD rat is reported as “no drug-related changes were observed”. Also, in the data set with soybean Williams 82, the leaf temperature entry is on record as “still significantly higher than that in the DMSO-sprayed control”. In data set [2], the flowers remained normal is reported as 60%, the leaf withering result was “no leave withered” and the leaves remained green came out at 70%. Besides, the “content of anthocyanin in grapes peel” value in the data set with Kyoho grapes is given as “significantly higher than that in the fresh water control group”. The EC50 at PYR1 + HAB1 was found to be 15 nM. The “bacterial toxicity to TA98 and TA100 strains” value in data set [3] was “no obvious bacterial toxicity”.
